The test system of data set [1] is A549. Put plainly: Cytotoxicity against human A549 cells assessed as reduction in cell viability incubated for 48 hrs by MTS assay. The format is functional, cell-based. As to conditions: A549, 48 h.
In data set [2] the test system is SW480. Kind of data set: Growth inhibition in human SW480 cells assessed as reduction in cell viability at 40 uM incubated for 48 hrs by MTS assay relative to control. The format is functional. As to conditions: read-out: GI.
Data set [3] relates to SW480. Put plainly: Cytotoxicity against human SW480 cells assessed as reduction in cell viability incubated for 48 hrs by MTS assay. Type of data set: functional, cell-based. As to conditions: SW480, 48 h.
Data set [4] deals with SMMC-7721. Kind of data set: Cytotoxicity against human SMMC-7721 cells assessed as reduction in cell viability incubated for 48 hrs by MTS assay. Type of data set: functional, cell-based. As to conditions: SMMC-7721, 48 h. A general note: Tetrazolium assays rely on reduction of a dye to a coloured formazan, in cell work by metabolically active cells.
Data set [5] relates to MDA-MB-231. Kind of data set: Growth inhibition in human MDA-MB-231 cells assessed as reduction in cell viability at 40 uM incubated for 48 hrs by MTS assay relative to control. Type of data set: functional. To be noted: read-out: GI.
The subject of data set [6] is MDA-MB-231. Put plainly: Cytotoxicity against human MDA-MB-231 cells assessed as reduction in cell viability incubated for 48 hrs by MTS assay. Type of data set: functional, cell-based. To be noted: MDA-MB-231, 48 h.
Data set [7] concerns A549. Put plainly: Growth inhibition in human A549 cells assessed as reduction in cell viability at 40 uM incubated for 48 hrs by MTS assay relative to control. The format is functional. As to conditions: read-out: GI.
Data set [8] concerns HL-60. Kind of data set: Growth inhibition in human HL-60 cells assessed as reduction in cell viability at 40 uM incubated for 48 hrs by MTS assay relative to control. Type of data set: functional. As to conditions: read-out: GI.
Data set [9] has as its system SMMC-7721. Kind of data set: Growth inhibition in human SMMC-7721 cells assessed as reduction in cell viability at 40 uM incubated for 48 hrs by MTS assay relative to control. Type of data set: functional. To be noted: read-out: GI.
Data set [10] is described as follows: Cytotoxicity against human BEAS-2B cells assessed as reduction in cell viability incubated for 48 hrs by MTS assay. Type of data set: toxicity, cell-based.
Data set [11] concerns HL-60. Kind of data set: Cytotoxicity against human HL-60 cells assessed as reduction in cell viability incubated for 48 hrs by MTS assay. Type of data set: functional, cell-based. As to conditions: HL-60, 48 h.
The test system of data set [12] is SMMC-7721. Kind of data set: Induction of apoptosis in human SMMC-7721 cells assessed as early apoptotic cells at 10 uM incubated for 24 hrs by Annexin V-PE/7-AAD staining based flow cytometry analysis (Rvb= 0.231%). The format is functional. (In general: A flow cytometer gives signals particle by particle.)
The subject of data set [13] is SMMC-7721. Kind of data set: Induction of apoptosis in human SMMC-7721 cells assessed as late apoptotic cells at 10 uM incubated for 24 hrs by Annexin V-PE/7-AAD staining based flow cytometry analysis (Rvb= 0.627%). Type of data set: functional.
Data set [14] concerns SMMC-7721. Put plainly: Induction of apoptosis in human SMMC-7721 cells assessed as necrotic cells at 5 uM incubated for 24 hrs by Annexin V-FITC/PI staining based flow cytometry analysis (Rvb= 0.572%). The format is functional.
The test system of data set [15] is SMMC-7721. Put plainly: Induction of apoptosis in human SMMC-7721 cells assessed as viable cells at 5 uM incubated for 24 hrs by Annexin V-PE/7-AAD staining based flow cytometry analysis (Rvb= 98.6%). The format is functional. As to conditions: read-out: Activity.
The test system of data set [16] is SMMC-7721. Put plainly: Induction of apoptosis in human SMMC-7721 cells assessed as necrotic cells at 20 uM incubated for 24 hrs by Annexin V-FITC/PI staining based flow cytometry analysis (Rvb= 0.572%). Type of data set: functional.
Data set [17] concerns SMMC-7721. Kind of data set: Induction of apoptosis in human SMMC-7721 cells assessed as viable cells at 20 uM incubated for 24 hrs by Annexin V-PE/7-AAD staining based flow cytometry analysis (Rvb= 98.6%). The format is functional. As to conditions: read-out: Activity.
The subject of data set [18] is SMMC-7721. Kind of data set: Induction of apoptosis in human SMMC-7721 cells assessed as viable cells at 10 uM incubated for 24 hrs by Annexin V-PE/7-AAD staining based flow cytometry analysis (Rvb= 98.6%). Type of data set: functional. As to conditions: read-out: Activity.
In data set [19] the test system is SMMC-7721. Kind of data set: Induction of apoptosis in human SMMC-7721 cells assessed as early apoptotic cells at 5 uM incubated for 24 hrs by Annexin V-PE/7-AAD staining based flow cytometry analysis (Rvb= 0.231%). The format is functional.
Data set [20] relates to SMMC-7721. Kind of data set: Induction of apoptosis in human SMMC-7721 cells assessed as late apoptotic cells at 5 uM incubated for 24 hrs by Annexin V-PE/7-AAD staining based flow cytometry analysis (Rvb= 0.627%). Type of data set: functional.
Data set [21] deals with SMMC-7721. Put plainly: Induction of apoptosis in human SMMC-7721 cells assessed as necrotic cells at 10 uM incubated for 24 hrs by Annexin V-FITC/PI staining based flow cytometry analysis (Rvb= 0.572%). The format is functional.
Data set [22] relates to SMMC-7721. Kind of data set: Induction of apoptosis in human SMMC-7721 cells assessed as early apoptotic cells at 20 uM incubated for 24 hrs by Annexin V-PE/7-AAD staining based flow cytometry analysis (Rvb= 0.231%). The format is functional.
For data set [23], the system named is SMMC-7721. Put plainly: Induction of apoptosis in human SMMC-7721 cells assessed as late apoptotic cells at 20 uM incubated for 24 hrs by Annexin V-PE/7-AAD staining based flow cytometry analysis (Rvb= 0.627%). The format is functional.

The term pIC50 denotes the negative decadic logarithm of the IC50, by convention in mol/L. As a reminder, the IC50 is the concentration that inhibits the measured activity by half.

SMILES strings stand for the structures. pIC50: −log10 of the molar value.

With `CC(C)=CCc1c(O)cc(O)c2c1O[C@]13C(=C[C@H]4C[C@H]1C(C)(C)O[C@@]3(CC=C(C)C)C4=O)C2=O`, the pIC50 is 6.10 in the data set on A549 [1]; 6.00 with SW480 [3]; 6.30 in the data set on SMMC-7721 [4]; 5.89 in the data set with MDA-MB-231 [6]; 5.96 with HL-60 [11]. In addition, the inhibition of growth at 40 µM in the data set with SW480 [2], in the data set on MDA-MB-231 [5], with A549 [7], with HL-60 [8] and in the data set with SMMC-7721 [9] was greater than 50% each time. In addition, in [10], the IC50 at 48 h is 700 nM.
In the case of `CC(C)=CC[C@@]12OC(C)(C)[C@@H]3C[C@H](C=C4C(=O)c5c(O)cc(O)c(CCC(C)(C)O)c5O[C@]431)C2=O`, the pIC50 is 5.54 with A549 [1]; 5.42 in the data set on SW480 [3]; 5.68 in the data set on SMMC-7721 [4]; 5.21 in the data set on MDA-MB-231 [6]; 5.31 in the data set with HL-60 [11]. The inhibition of growth at 40 µM in the data set on SW480 [2], with MDA-MB-231 [5], in the data set with A549 [7], in the data set with HL-60 [8] and with SMMC-7721 [9] was greater than 50% each time. Also, in [10], the IC50 at 48 h was found to be 7700 nM.
With `CC1(C)C=Cc2c(cc(O)c3c(=O)c4ccc(O)c(O)c4oc23)O1`, the pIC50 in the data set with A549 [1] is 5.41; in the data set on SW480 [3], 5.40; with SMMC-7721 [4], 5.66; in the data set with MDA-MB-231 [6] it was 5.05. The inhibition of growth at 40 µM in the data set with SW480 [2], with MDA-MB-231 [5], in the data set with A549 [7], in the data set on HL-60 [8] and in the data set on SMMC-7721 [9] was greater than 50% throughout. In [10], the IC50 at 48 h worked out at 21100 nM.
`CC(C)=CC[C@@]12OC(C)(C)[C@@H]3C[C@H](C=C4C(=O)c5c(O)cc(O)cc5O[C@]431)C2=O`: the Activity in the data set on SMMC-7721 [12] is on record as 12.7%; in the data set with SMMC-7721 [13], 29.1%; in the data set on SMMC-7721 [14], 1.8%; in the data set on SMMC-7721 [16], 3.79%; in the data set on SMMC-7721 [19] it was 3.74%; with SMMC-7721 [20] it was 9.08%. Also, the Activity in the data set with SMMC-7721 [21] came out at 8.22%; in the data set with SMMC-7721 [22], 20.5%; with SMMC-7721 [23], 68.7%. The pIC50 in the data set on A549 [1] is 5.59; with SW480 [3], 5.43; with SMMC-7721 [4], 5.85; in the data set with MDA-MB-231 [6] it was 5.24; in the data set with HL-60 [11], 5.20. Further, the inhibition of growth at 40 µM in the data set with SW480 [2], with MDA-MB-231 [5], in the data set on A549 [7], in the data set with HL-60 [8] and in the data set on SMMC-7721 [9] was greater than 50% in each case. In addition, the viability at 5 µM in the data set on SMMC-7721 [15] turned out to be 85.4%. In addition, the viability at 20 µM in the data set on SMMC-7721 [17] was found to be 6.98%. The viability at 10 µM with SMMC-7721 [18] was determined as 50%. Moreover, the IC50 at 48 h in [10] came out at 3200 nM.
With `CC(C)=CC[C@@]12OC(C)(C)[C@@H]3C[C@H](C=C4C(=O)c5c(O)cc6c(c5O[C@]431)CCC(C)(C)O6)C2=O`, the pIC50 in the data set with A549 [1] is 5.54; in the data set with SW480 [3], 6.00; in the data set on SMMC-7721 [4], 6.00; with MDA-MB-231 [6] it was 5.64; with HL-60 [11], 5.77. Besides, the inhibition of growth at 40 µM in the data set with SW480 [2], with MDA-MB-231 [5], in the data set on A549 [7], in the data set with HL-60 [8] and in the data set with SMMC-7721 [9] was greater than 50% in each case. Further, the IC50 at 48 h in data set [10] turned out to be 1100 nM.
On to `CC(C)(O)CCc1c(O)cc(O)c2c(=O)c3ccc(O)c(O)c3oc12`, for which the pIC50 in the data set with A549 [1] is 5.14; in the data set with SW480 [3], 5.21; with SMMC-7721 [4] it was 5.66; in the data set with MDA-MB-231 [6] it was 4.56; in the data set with HL-60 [11] it was 5.41. Further, the inhibition of growth at 40 µM in the data set on SW480 [2], with MDA-MB-231 [5], in the data set with A549 [7], in the data set on HL-60 [8] and in the data set with SMMC-7721 [9] was greater than 50% each time. Further, the IC50 at 48 h in data set [10] was determined as 20400 nM.
Regarding `COc1cccc2c1C(=O)c1c(O)c3c(c(O)c1C2=O)C[C@@](O)(C(=O)CO)C[C@@H]3O[C@H]1C[C@H](N)[C@H](O)[C@H](C)O1` [DOXORUBICIN], the Activity in the data set with SMMC-7721 [14] is recorded as 1.85%; with SMMC-7721 [19], 0.796%; in the data set with SMMC-7721 [20] it was 96%. In addition, in the data set on SMMC-7721 [15], the viability at 5 µM is 1.34%.

(Values after ChEMBL document CHEMBL5370577, “Structurally Diverse Cytotoxic Polyphenols from Garcinia gracilis” (J Nat Prod, 2023).)
